Laboratory results: the NIST ThermoML archive (doi:10.1021/je050010l)
Numbers after ± are expanded uncertainties.

Legend:
[1] = xn = mol fraction of the nth substance listed; settings: 100.8 kPa, Liquid; for viscosity: Capillary tube (Ostwald / Ubbelohde) method
[2] = refractive index (Na D-line) (dimensionless); xn = mol fraction of the nth substance listed; settings: 100.8 kPa, Liquid, Standard Abbe refractometry

CC(C)CC(C)(C)C [2,2,4-trimethylpentane] + CC(C)=O
Settings | mass density, 288.15 K [kg/m3] | mass density, 298.15 K [kg/m3] | mass density, 308.15 K [kg/m3] | refractive index, 288.15 K | refractive index, 298.15 K | refractive index, 308.15 K | viscosity, 288.15 K [mPa·s] | viscosity, 298.15 K [mPa·s] | viscosity, 308.15 K [mPa·s]
[1], x2 = 0 | 695.95 ± 0.31 | 687.74 ± 0.31 | 679.41 ± 0.32 | – | – | – | 0.537 ± 0.005 | 0.48 ± 0.004 | 0.432 ± 0.004
[1], x2 = 0.0499 | 697.34 ± 0.31 | 688.89 ± 0.31 | 680.44 ± 0.32 | – | – | – | 0.519 ± 0.005 | 0.465 ± 0.004 | 0.42 ± 0.004
[1], x2 = 0.1 | 698.86 ± 0.31 | 690.36 ± 0.31 | 681.77 ± 0.32 | – | – | – | 0.505 ± 0.004 | 0.452 ± 0.004 | 0.408 ± 0.004
[1], x2 = 0.15 | 700.68 ± 0.3 | 692.07 ± 0.31 | 683.36 ± 0.32 | – | – | – | 0.492 ± 0.004 | 0.44 ± 0.004 | 0.397 ± 0.004
[1], x2 = 0.2 | 702.68 ± 0.3 | 693.98 ± 0.31 | 685.16 ± 0.31 | – | – | – | 0.479 ± 0.004 | 0.429 ± 0.004 | 0.387 ± 0.004
[1], x2 = 0.25 | 705.09 ± 0.3 | 696.24 ± 0.31 | 687.26 ± 0.31 | – | – | – | 0.468 ± 0.004 | 0.419 ± 0.004 | 0.378 ± 0.003
[1], x2 = 0.3 | 707.68 ± 0.3 | 698.7 ± 0.3 | 689.56 ± 0.31 | – | – | – | 0.456 ± 0.004 | 0.409 ± 0.004 | 0.369 ± 0.003
[1], x2 = 0.35 | 710.55 ± 0.29 | 701.44 ± 0.3 | 692.21 ± 0.31 | – | – | – | 0.446 ± 0.004 | 0.399 ± 0.004 | 0.361 ± 0.003
[1], x2 = 0.4 | 713.76 ± 0.29 | 704.51 ± 0.3 | 695.1 ± 0.31 | – | – | – | 0.436 ± 0.004 | 0.39 ± 0.004 | 0.353 ± 0.003
[1], x2 = 0.45 | 717.31 ± 0.29 | 707.86 ± 0.3 | 698.29 ± 0.3 | – | – | – | 0.426 ± 0.004 | 0.382 ± 0.004 | 0.346 ± 0.003
[1], x2 = 0.5 | 721.15 ± 0.29 | 711.61 ± 0.29 | 701.91 ± 0.3 | – | – | – | 0.416 ± 0.004 | 0.374 ± 0.003 | 0.338 ± 0.003
[1], x2 = 0.55 | 725.46 ± 0.28 | 715.73 ± 0.29 | 705.86 ± 0.3 | – | – | – | 0.407 ± 0.004 | 0.366 ± 0.003 | 0.332 ± 0.003
[1], x2 = 0.6 | 730.17 ± 0.28 | 720.32 ± 0.29 | 710.3 ± 0.29 | – | – | – | 0.398 ± 0.004 | 0.358 ± 0.003 | 0.325 ± 0.003
[1], x2 = 0.65 | 735.45 ± 0.27 | 725.44 ± 0.28 | 715.27 ± 0.29 | – | – | – | 0.389 ± 0.004 | 0.35 ± 0.003 | 0.318 ± 0.003
[1], x2 = 0.7 | 741.35 ± 0.27 | 731.16 ± 0.28 | 720.79 ± 0.28 | – | – | – | 0.38 ± 0.003 | 0.343 ± 0.003 | 0.312 ± 0.003
[1], x2 = 0.75 | 747.84 ± 0.26 | 737.51 ± 0.27 | 727.01 ± 0.28 | – | – | – | 0.372 ± 0.003 | 0.336 ± 0.003 | 0.306 ± 0.003
[1], x2 = 0.8 | 755.3 ± 0.26 | 744.71 ± 0.27 | 733.99 ± 0.27 | – | – | – | 0.364 ± 0.003 | 0.329 ± 0.003 | 0.299 ± 0.003
[1], x2 = 0.85 | 763.58 ± 0.25 | 752.89 ± 0.26 | 742.02 ± 0.27 | – | – | – | 0.356 ± 0.003 | 0.322 ± 0.003 | 0.293 ± 0.003
[1], x2 = 0.9 | 773.12 ± 0.24 | 762.22 ± 0.25 | 751.12 ± 0.26 | – | – | – | 0.348 ± 0.003 | 0.315 ± 0.003 | 0.287 ± 0.003
[1], x2 = 0.95 | 784.18 ± 0.24 | 773.02 ± 0.24 | 761.68 ± 0.25 | – | – | – | 0.341 ± 0.003 | 0.309 ± 0.003 | 0.281 ± 0.003
[2], x2 = 0 | – | – | – | 1.39404 ± 0.00031 | 1.389 ± 0.00031 | 1.38395 ± 0.00031 | – | – | –
[2], x2 = 0.0499 | – | – | – | 1.39283 ± 0.00031 | 1.38765 ± 0.00031 | 1.38256 ± 0.00031 | – | – | –
[2], x2 = 0.1 | – | – | – | 1.39158 ± 0.00031 | 1.38634 ± 0.00031 | 1.38119 ± 0.00031 | – | – | –
[2], x2 = 0.15 | – | – | – | 1.39031 ± 0.00031 | 1.38501 ± 0.00031 | 1.37981 ± 0.00031 | – | – | –
[2], x2 = 0.2 | – | – | – | 1.38905 ± 0.00031 | 1.38374 ± 0.00031 | 1.37848 ± 0.00031 | – | – | –
[2], x2 = 0.25 | – | – | – | 1.38769 ± 0.00031 | 1.3824 ± 0.00031 | 1.3771 ± 0.00031 | – | – | –
[2], x2 = 0.3 | – | – | – | 1.3864 ± 0.00031 | 1.3811 ± 0.00031 | 1.37574 ± 0.00031 | – | – | –
[2], x2 = 0.35 | – | – | – | 1.38509 ± 0.00031 | 1.37975 ± 0.00031 | 1.37434 ± 0.00031 | – | – | –
[2], x2 = 0.4 | – | – | – | 1.38374 ± 0.00031 | 1.37833 ± 0.00031 | 1.3729 ± 0.00031 | – | – | –
[2], x2 = 0.45 | – | – | – | 1.38233 ± 0.00031 | 1.37687 ± 0.00031 | 1.37142 ± 0.00031 | – | – | –
[2], x2 = 0.5 | – | – | – | 1.38086 ± 0.00031 | 1.37538 ± 0.00031 | 1.36989 ± 0.00031 | – | – | –
[2], x2 = 0.55 | – | – | – | 1.37934 ± 0.00031 | 1.37379 ± 0.00031 | 1.36831 ± 0.00031 | – | – | –
[2], x2 = 0.6 | – | – | – | 1.37774 ± 0.00031 | 1.37219 ± 0.00031 | 1.36666 ± 0.00031 | – | – | –
[2], x2 = 0.65 | – | – | – | 1.37606 ± 0.00031 | 1.3705 ± 0.00031 | 1.36495 ± 0.00031 | – | – | –
[2], x2 = 0.7 | – | – | – | 1.3743 ± 0.00031 | 1.3687 ± 0.00031 | 1.36314 ± 0.00031 | – | – | –
[2], x2 = 0.75 | – | – | – | 1.37243 ± 0.00031 | 1.36683 ± 0.00031 | 1.36126 ± 0.00031 | – | – | –
[2], x2 = 0.8 | – | – | – | 1.37045 ± 0.00031 | 1.36486 ± 0.00031 | 1.35931 ± 0.00031 | – | – | –
[2], x2 = 0.85 | – | – | – | 1.36839 ± 0.00031 | 1.36279 ± 0.00031 | 1.35726 ± 0.00031 | – | – | –
[2], x2 = 0.9 | – | – | – | 1.36624 ± 0.00031 | 1.36064 ± 0.00031 | 1.3551 ± 0.00031 | – | – | –
[2], x2 = 0.95 | – | – | – | 1.36394 ± 0.00031 | 1.35838 ± 0.00031 | 1.35285 ± 0.00031 | – | – | –
